Legend:
rTR alpha = target: T1, rTR alpha (Rattus norvegicus, UniProt P63059); experiment: ^125I-T3 binding to in vitro translated rTR alpha (Scatchard and competition); settings: excess competitor
T1 construct: made in house; host or cells: rabbit reticulocyte lysate (SP6 transcripts of rbeA12B)
T1 sequence (P63059 1-410 isoform P63059-2): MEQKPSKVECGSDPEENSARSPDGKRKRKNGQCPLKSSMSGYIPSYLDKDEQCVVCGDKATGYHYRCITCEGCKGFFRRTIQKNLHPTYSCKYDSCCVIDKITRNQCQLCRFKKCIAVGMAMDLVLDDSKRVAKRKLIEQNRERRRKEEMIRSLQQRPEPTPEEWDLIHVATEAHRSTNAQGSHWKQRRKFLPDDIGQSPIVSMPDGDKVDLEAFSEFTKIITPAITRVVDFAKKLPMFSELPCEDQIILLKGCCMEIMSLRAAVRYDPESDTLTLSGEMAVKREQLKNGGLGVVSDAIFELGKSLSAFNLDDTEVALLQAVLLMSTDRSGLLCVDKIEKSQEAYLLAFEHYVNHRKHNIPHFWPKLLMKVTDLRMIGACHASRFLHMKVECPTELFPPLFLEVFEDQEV
Excerpt: In vitro translation and thyroid hormone binding of rTR alpha FIG. 69 rTR alpha was transcribed in vitro and translated in a rabbit reticulocyte lysate. […] Lane 1, no added RNA; lane 2, rbeA12, which contains the entire 5′ untranslated region; lane 3, rbeA12B, which contains only 97 bp of 5′ untranslated sequence. […] Samples from rbeA12B programmed lysates were mixed with increasing concentrations of unlabeled thyroid hormone or analogs to compete with labeled hormone. […] In vitro transcription and translation and hormone binding were performed as described (22, 23).
23. For in vitro transcription, the entire EcoRI insert of rbeA12 was cloned into pGEM1 (Promega Biotec). […] For thyroid hormone binding, transcriptions were performed with SP6 polymerase and 5 to 10 micrograms of rbeA12B linearized with SstI. […] Thyroid hormone binding for both the Scatchard and competition analyses were determined in the same manner, except that unlabeled protein was used for the Scatchard analysis. […] Specific hormone binding was determined by adding a 1000-fold excess of unlabeled hormone and assayed by counting radioactivity eluting in the excluded volume from a Sephadex G-25 fine (Pharmacia) 0.9-by 4.0-cm. column.

GR = target: T2, GR (Homo sapiens, UniProt P04150); experiment: hGR functional assay: CAT activity in CV-1 cells cotransfected with pRShGR alpha (or mutant) and pMTVCAT; assay type: cell-based; design: The expression vector linking the RSV LTR to full length hGR cDNA (pRShGR alpha) was designed to obtain high levels of expression; expressed in transfected cells; host or cells: CV-1 monkey kidney cells, cotransfected with pMTVCAT; settings: 100 nM steroid, cotransfected CV-1 cells
T2 sequence (P04150 1-777): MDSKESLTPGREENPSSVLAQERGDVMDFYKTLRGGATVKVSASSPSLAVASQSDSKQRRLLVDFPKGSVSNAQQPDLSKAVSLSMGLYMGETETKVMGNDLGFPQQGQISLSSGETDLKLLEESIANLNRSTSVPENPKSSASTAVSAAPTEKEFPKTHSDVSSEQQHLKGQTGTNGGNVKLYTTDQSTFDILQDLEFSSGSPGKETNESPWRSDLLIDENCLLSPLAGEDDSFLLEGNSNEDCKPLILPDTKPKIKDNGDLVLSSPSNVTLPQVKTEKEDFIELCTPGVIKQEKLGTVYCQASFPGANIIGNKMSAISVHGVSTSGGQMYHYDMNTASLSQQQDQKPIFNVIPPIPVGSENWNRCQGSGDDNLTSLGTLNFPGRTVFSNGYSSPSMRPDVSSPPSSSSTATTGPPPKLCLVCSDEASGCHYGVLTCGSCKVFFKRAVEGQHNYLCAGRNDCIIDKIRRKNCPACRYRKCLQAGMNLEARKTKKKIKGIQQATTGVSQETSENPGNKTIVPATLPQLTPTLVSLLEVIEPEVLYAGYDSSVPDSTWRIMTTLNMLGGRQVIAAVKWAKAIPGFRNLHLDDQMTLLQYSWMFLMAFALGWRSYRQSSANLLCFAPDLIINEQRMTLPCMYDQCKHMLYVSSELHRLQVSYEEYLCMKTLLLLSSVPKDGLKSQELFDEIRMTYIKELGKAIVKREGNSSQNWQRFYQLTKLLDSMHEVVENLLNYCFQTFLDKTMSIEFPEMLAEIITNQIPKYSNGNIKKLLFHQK
Excerpt: The assay system and strategy used to study the expression of functional hGR from the cloned cDNA (See Experimental Section I) is shown in FIG. 11. In these experiments, a glucocorticoid-responsive promoter/enhancer element linked to a reporter gene was introduced into a receptor-negative cell. […] For our assay, we chose to use the MTV LTR fused to the sequence coding for chloramphenicol acetyltransferase (CAT) (EC2.3.1.28). […] Cotransfection of pMTVCAT (or pGMCAT) with a receptor expression plasmid provides functional receptors that allow induction of CAT activity upon treatment of the transfected cells with glucocorticoid hormone. In addition, biochemical studies such as steroid binding activity and Western blot analysis of the expressed receptors can be performed simultaneously.
The cells are then cultured in the presence or absence of hormone. CV-1 cells were used to monitor induction of CAT activity, and COS cells were used to measure steroid-binding capacity and the expression of hGR protein.
CAT assays were performed as indicated in Experimental Procedures (See Section II. F.). C, chloramphenicol; AC, 3-acetylchloramphenicol.
The levels of CAT activity were plotted as percentages of the maximal response observe in a particular experiment.
Each plasmid preparation used for transfection was purified using two consecutive CsCl-EtBr equilibrium gradients. […]

C[C@]12CC[C@@H]3c4ccc(O)cc4CC[C@H]3[C@@H]1CC[C@@H]2O [oestradiol]
competition for T3 binding to rTR alpha by excess compound (rTR alpha): no competition | induction of CAT activity by steroid (GR): failed to induce CAT activity
